From paper PMC3961306, “Comparison of the Cancer Gene Targeting and Biochemical Selectivities of All Targeted Kinase Inhibitors Approved for Clinical Use” (PLoS ONE, 2014)

Key:
Assay in all cases: Kinase profiling in a biochemical assay panel (mobility shift assays and ELISA), %-inhibition at 1 μM; selectivity entropy
[1] = molecular target: panel of more than 300 wild-type and mutant kinases (313 kinase panel) (Homo sapiens, UniProt P49761); details: kinase CLK3; compound at 1 μM
[2] = molecular target: panel of more than 300 wild-type and mutant kinases (313 kinase panel) (Homo sapiens, UniProt Q9NYA1); details: kinase SPHK1; 1 μM
[3] = molecular target: T1, panel of more than 300 wild-type and mutant kinases (313 kinase panel) (Homo sapiens, UniProt Q9BXA7); details: kinase TSSK1; 1 μM
T1 sequence (Q9BXA7 1-367): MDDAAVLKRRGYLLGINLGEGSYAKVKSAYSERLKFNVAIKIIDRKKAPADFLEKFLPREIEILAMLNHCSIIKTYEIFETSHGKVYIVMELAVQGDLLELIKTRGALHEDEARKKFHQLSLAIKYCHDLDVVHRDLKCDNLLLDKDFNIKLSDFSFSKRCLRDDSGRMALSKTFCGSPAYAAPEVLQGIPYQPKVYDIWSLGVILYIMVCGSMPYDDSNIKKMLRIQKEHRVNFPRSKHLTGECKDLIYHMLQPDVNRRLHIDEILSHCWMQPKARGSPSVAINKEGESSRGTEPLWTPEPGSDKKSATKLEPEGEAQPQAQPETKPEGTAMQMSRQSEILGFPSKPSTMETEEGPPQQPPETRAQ

[4] = molecular target: T2, panel of more than 300 wild-type and mutant kinases (313 kinase panel) (Homo sapiens, UniProt Q9BZL6); details: kinase PKD2; 1 μM
T2 sequence (Q9BZL6 1-878): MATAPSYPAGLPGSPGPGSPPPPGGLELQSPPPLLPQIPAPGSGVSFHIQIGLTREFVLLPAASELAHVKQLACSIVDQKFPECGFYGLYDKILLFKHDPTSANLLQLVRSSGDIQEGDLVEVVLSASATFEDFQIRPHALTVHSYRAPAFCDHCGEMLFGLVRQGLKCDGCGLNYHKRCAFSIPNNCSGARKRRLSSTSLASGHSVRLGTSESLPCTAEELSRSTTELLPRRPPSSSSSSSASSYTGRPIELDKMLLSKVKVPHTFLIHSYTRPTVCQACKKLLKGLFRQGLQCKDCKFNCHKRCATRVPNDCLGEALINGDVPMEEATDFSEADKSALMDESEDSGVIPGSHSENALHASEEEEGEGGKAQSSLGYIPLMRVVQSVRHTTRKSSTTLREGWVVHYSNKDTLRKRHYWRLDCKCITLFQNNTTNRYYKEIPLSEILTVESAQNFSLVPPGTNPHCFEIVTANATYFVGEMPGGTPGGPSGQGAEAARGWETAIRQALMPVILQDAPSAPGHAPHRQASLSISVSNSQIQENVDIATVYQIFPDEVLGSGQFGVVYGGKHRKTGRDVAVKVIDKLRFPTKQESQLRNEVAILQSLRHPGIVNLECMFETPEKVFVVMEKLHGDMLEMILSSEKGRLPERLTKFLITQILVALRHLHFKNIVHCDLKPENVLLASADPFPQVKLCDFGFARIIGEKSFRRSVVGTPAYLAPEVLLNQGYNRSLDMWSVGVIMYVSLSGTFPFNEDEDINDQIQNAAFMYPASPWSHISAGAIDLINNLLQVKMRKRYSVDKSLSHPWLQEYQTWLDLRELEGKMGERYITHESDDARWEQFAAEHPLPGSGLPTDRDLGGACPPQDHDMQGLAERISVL

[5] = molecular target: T3, panel of more than 300 wild-type and mutant kinases (313 kinase panel) (Homo sapiens, UniProt P54762); details: kinase EPHB1; compound at 1 μM
T3 sequence (P54762 18-984): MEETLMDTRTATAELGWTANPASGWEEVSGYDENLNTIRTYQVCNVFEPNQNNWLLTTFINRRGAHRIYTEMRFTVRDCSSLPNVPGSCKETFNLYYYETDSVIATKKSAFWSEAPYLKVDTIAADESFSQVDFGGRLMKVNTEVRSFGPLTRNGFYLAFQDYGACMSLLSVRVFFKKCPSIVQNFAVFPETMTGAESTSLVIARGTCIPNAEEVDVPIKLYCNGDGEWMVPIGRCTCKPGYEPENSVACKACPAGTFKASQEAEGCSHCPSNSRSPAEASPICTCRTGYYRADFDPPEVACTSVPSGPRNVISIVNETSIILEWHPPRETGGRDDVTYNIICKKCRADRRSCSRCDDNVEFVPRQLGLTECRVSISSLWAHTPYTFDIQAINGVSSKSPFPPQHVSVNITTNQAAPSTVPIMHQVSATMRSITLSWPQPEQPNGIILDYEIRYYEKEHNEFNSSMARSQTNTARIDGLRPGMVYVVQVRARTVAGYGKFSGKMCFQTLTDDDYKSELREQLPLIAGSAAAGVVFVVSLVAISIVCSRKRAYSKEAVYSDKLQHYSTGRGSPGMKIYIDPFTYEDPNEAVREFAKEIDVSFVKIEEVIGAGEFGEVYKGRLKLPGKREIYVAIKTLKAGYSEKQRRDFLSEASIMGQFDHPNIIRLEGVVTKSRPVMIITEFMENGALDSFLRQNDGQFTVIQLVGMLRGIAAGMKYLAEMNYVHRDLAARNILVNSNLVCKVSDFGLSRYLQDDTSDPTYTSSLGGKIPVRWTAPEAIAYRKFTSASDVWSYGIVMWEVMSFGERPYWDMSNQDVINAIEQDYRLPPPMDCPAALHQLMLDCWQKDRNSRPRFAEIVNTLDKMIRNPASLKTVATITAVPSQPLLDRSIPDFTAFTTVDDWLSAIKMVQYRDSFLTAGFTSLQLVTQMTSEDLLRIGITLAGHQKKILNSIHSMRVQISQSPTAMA

[6] = molecular target: panel of more than 300 wild-type and mutant kinases (313 kinase panel) (Homo sapiens, UniProt P07949, S891A); details: kinase RET(S891A); 1 μM
[7] = molecular target: panel of more than 300 wild-type and mutant kinases (313 kinase panel) (Homo sapiens, UniProt Q9Y243); details: kinase AKT3; 1 μM compound
panel of more than 300 wild-type and mutant kinases (313 kinase panel) (Homo sapiens, UniProt Q9Y243), sequence (Q9Y243 whole entry, change not shown): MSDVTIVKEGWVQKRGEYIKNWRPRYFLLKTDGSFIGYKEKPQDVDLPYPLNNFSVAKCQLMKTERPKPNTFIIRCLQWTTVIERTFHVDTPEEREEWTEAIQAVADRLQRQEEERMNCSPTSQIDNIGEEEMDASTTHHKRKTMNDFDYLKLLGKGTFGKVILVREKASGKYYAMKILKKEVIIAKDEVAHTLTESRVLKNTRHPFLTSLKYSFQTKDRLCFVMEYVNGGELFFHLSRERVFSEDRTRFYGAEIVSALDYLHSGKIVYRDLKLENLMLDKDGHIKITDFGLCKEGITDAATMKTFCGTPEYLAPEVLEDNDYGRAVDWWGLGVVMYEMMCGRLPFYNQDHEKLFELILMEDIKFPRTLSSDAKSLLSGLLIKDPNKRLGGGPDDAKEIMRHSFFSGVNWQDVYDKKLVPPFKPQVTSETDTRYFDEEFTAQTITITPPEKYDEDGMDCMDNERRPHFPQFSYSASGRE

panel of more than 300 wild-type and mutant kinases (313 kinase panel) (Homo sapiens, UniProt P07949, S891A), sequence (P07949 29-1114 S891A): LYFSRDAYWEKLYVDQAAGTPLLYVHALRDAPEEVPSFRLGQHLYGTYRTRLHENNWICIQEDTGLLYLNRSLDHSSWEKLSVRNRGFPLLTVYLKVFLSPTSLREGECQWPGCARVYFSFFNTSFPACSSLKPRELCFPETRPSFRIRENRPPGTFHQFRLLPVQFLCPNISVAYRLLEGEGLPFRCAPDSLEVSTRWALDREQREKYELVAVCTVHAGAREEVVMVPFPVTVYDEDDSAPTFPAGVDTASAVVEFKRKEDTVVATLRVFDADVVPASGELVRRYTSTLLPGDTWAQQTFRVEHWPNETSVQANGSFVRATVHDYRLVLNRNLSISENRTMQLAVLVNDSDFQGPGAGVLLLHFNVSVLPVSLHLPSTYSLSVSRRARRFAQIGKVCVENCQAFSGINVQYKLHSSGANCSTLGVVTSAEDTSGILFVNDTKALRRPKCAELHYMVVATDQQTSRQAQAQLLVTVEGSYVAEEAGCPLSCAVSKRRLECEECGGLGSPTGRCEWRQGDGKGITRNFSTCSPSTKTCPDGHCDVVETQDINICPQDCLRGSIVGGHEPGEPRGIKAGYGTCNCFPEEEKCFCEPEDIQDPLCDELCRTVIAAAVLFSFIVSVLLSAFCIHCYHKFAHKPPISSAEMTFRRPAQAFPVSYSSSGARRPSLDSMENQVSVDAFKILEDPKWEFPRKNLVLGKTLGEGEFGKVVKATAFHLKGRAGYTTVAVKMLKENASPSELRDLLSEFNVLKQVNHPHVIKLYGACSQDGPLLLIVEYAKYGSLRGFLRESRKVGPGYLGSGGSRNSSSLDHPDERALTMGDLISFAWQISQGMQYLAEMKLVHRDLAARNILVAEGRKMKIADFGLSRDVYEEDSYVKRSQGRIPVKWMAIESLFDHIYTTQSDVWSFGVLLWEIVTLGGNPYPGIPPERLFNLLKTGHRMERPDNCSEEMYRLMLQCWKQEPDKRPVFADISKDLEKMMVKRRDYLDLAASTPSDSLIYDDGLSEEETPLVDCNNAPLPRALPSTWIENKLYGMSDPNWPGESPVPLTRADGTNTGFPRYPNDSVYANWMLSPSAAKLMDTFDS
panel of more than 300 wild-type and mutant kinases (313 kinase panel) (Homo sapiens, UniProt P49761), sequence (P49761 whole entry, change not shown): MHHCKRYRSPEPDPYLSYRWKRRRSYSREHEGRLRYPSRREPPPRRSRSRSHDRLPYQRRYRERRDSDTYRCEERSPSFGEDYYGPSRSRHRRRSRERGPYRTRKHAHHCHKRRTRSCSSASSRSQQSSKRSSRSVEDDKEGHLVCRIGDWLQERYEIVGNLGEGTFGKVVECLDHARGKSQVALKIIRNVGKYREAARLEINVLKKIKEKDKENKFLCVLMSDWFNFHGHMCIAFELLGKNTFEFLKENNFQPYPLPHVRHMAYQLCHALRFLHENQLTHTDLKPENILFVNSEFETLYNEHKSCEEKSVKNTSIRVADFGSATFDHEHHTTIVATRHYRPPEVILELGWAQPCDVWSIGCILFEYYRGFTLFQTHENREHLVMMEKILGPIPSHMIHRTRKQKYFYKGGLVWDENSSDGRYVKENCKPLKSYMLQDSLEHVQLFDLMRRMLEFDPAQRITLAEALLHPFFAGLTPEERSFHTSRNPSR

Structure (SMILES)	%-inhibition of CLK3 [1] [%]	%-inhibition of SPHK1 [2] [%]	%-inhibition of TSSK1 [3] [%]	%-inhibition of PKD2 [4] [%]	%-inhibition of EPHB1 [5] [%]	%-inhibition of RET(S891A) [6] [%]	%-inhibition, AKT3 [7] [%]
CO[C@H]1C[C@@H]2CC[C@@H](C)[C@@](O)(O2)C(=O)C(=O)N2CCCC[C@H]2C(=O)O[C@H]([C@H](C)C[C@@H]2CC[C@@H](OC(=O)C(C)(CO)CO)[C@H](OC)C2)CC(=O)[C@H](C)/C=C(\C)[C@@H](O)[C@@H](OC)C(=O)[C@H](C)C[C@H](C)/C=C/C=C/C=C/1C [temsirolimus]	-3	-14	-7	-16	-1.86	-2.19	-1.72
CC(=O)Nc1cccc(-n2c(=O)n(C3CC3)c(=O)c3c(Nc4ccc(I)cc4F)n(C)c(=O)c(C)c32)c1 [trametinib]	-0.0684	-11	-5	-3.28	-8	-1.24	-5.3
CCCS(=O)(=O)Nc1ccc(F)c(C(=O)c2c[nH]c3ncc(-c4ccc(Cl)cc4)cc23)c1F [vemurafenib]	-14	-11	-4	-13	-1.63	60	-0.678
